Where two headings read alike, the source gives them in different places.
Tests used:
ob/ob mice = test: fexaramine and deuterated analogs in ob/ob mice, 2 weeks; format: in vivo; conditions: 2 weeks at 50 mg/kg PO
Experimental: An in vivo study of fexaramine and selectively-deuterated fexaramine compounds (FIG. 29A) was performed. Briefly, ob/ob mice were treated daily with vehicle, Fex, or deuterated analogs (50 mg kg^−1) by oral (PO) gavage for 2 weeks. Subsequently, body weight, body temperature, fasting blood glucose and insulin levels, insulin secretion, and GLP1 section were measured, and glucose tolerance tests (GTTs) performed.

[1] = system: FXR target gene expression in the liver; test: liver gene expression by QPCR after 14 days oral FEX-D or SALK110; format: in vivo, Mice; conditions: 50 mg/kg PO 14 days
Experimental: Mice were treated daily with vehicle, FEX-D, or SALK110 (NSSK00110, 50 mg kg^−1) (see FIG. 29A) by oral (PO) gavage for 14 days, with tissues collected 1 hour after the final treatment. Gene expression changes in the liver were measured by QPCR.

Human FXR full length = target: T1, Human FXR full length (Homo sapiens, UniProt Q96RI1); test: FXR activity screen, luciferase reporter in transfected CV-1 cells; format: cell-based
T1 construct: Human FXR full length and RXR full length was obtained from Ronald Evans' laboratory; expressed in transfected cells; host or cells: CV-1 cells
T1 sequence (Q96RI1 1-476 isoform Q96RI1-1): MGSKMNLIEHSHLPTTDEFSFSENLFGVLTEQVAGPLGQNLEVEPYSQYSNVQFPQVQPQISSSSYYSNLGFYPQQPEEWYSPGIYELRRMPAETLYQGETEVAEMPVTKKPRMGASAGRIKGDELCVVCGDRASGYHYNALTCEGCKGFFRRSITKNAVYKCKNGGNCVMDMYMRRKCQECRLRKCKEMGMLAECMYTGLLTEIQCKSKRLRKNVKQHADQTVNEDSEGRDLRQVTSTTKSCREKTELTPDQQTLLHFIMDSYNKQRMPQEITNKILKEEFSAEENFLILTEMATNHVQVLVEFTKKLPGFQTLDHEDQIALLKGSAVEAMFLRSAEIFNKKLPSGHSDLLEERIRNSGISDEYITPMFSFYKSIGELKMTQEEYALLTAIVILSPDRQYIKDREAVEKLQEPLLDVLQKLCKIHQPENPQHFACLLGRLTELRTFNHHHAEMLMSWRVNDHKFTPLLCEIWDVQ
T1 sequence (P19793 1-462 partner): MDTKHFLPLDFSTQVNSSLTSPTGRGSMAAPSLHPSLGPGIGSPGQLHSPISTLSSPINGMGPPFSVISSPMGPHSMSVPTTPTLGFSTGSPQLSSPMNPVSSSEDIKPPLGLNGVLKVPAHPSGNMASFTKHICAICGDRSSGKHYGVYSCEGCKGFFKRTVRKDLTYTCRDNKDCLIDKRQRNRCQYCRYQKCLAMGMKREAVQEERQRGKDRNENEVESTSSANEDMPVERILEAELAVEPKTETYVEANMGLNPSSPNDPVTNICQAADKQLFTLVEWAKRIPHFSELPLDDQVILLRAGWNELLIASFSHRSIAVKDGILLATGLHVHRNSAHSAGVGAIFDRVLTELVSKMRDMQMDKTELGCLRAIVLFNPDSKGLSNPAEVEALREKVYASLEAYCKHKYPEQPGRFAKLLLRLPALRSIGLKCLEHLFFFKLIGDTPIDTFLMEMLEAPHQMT
Experimental: CV-1 cells were grown in DMEM+10% charcoal stripped FCS. Cells were seeded into 384-well plates the day before transfection to give a confluency of 50-80% at transfection. A total of […] DNA containing 0.32 micrograms pCMX-hFXRfl, 0.32 micrograms pCMX-hRXRfl, 0.1 micrograms pCMXβGal, 0.08 micrograms pGLFXRE reporter and 0.02 micrograms pCMX empty vector was transfected per well using FuGene transfection reagent according to the manufacturer's instructions (Roche). Cells were allowed to express protein for 48 hours followed by addition of compound.
Human FXR full length and RXR full length was obtained from Ronald Evans' laboratory and PCR amplification of the hFXR cDNA and the hRXR cDNA was performed. The amplified cDNAs was cloned into the vector pCMX generating the plasmids pCMX-hFXRfl and pCMX-hRXRfl. Ensuing fusions were verified by sequencing. The pCMXMH2004 luciferase reporter contains multiple copies of the GAL4 DNA response element under a minimal eukaryotic promoter (Hollenberg and Evans, 1988). pCMXβGal was generated in the Evans laboratory, Salk Institute.
All compounds were dissolved in DMSO and diluted 1:1000 upon addition to the cells. Compounds were tested in quadruple in concentrations ranging from 0.001 to 100 μM. Cells were treated with compound for 24 hours followed by luciferase assay. Each compound was tested in at least two separate experiments.
Medium including test compound was aspirated and washed with PBS. 50 μL PBS including 1 mM Mg^2+ and Ca^2+ were then added to each well. The luciferase assay was performed using the LucLite kit according to the manufacturer's instructions (Packard Instruments). Light emission was quantified by counting on a Perkin Elmer Envision reader. To measure […] activity 25 μL supernatant from each transfection lysate was transferred to a new 384 microplate. Beta-galactosidase assays were performed in the microwell plates using a kit from Promega and read in a Perkin Elmer Envision reader. The beta-galactosidase data were used to normalize (transfection efficiency, cell growth etc.) the luciferase data.
The activity of a compound is calculated as fold induction compared to an untreated sample. For each compound the efficacy (maximal activity) is given as a relative activity compared to Fexaramine, a FXR agonist. The EC50 is the concentration giving 50% of maximal observed activity. EC50 values were calculated via non-linear regression using GraphPad PRISM (GraphPad Software, San Diego, Calif.).

human L cells = test: oxygen consumption rate of intestinal L cells (Seahorse analyzer); format: cell-based; conditions: fexaramine 1 μM for 24 hours
Experimental: FIG. 41 is a graph showing the effects of modulating FXR activity on the oxidative metabolism of intestinal L cells. L cells were treated with the FXR agonist fexaramine, the FXR antagonist Guggulsterone, or a combination of both, prior to measurement of their oxygen consumption rate (OCR) in a Seahorse analyzer.
To examine the effects of FXR in the secretion of GLP-1, the metabolic changes induced in human L cells was measured by treatment with the FXR agonist, fexaramine and an FXR antagonist guggulsterone. Treatment of L cells with fexaramine (1 μM for 24 hours) lead to an increase in the oxygen consumption rate (OCR), consistent with increased mitochondrial activity and consequently, an increased energetic state (FIG. 41). The reverse effect was seen after treatment with the FXR antagonist, guggulsterone, with lower OCR after drug treatment.

[2] = first round, CV-1 cells, 24 hours, read-out: 1st RND EC50
[3] = retest, read-out: EC50 (retested)
[4] = second round, CV-1 cells, 24 hours, read-out: 2nd RND EC50

Row | SMILES | EC50 (Human FXR full length; [2]) | EC50 (Human FXR full length; [4]) | also measured
1 | [2H]C(c1ccc(-c2ccc(N(C)C)cc2)cc1)N(C(=O)C1CCCCC1)c1cccc(/C=C/C(=O)OC)c1 (stereo not shown) [NSSK00077, methyl (E)-3-(3-(N-((4′-(dimethylamino)-[1,1′-biphenyl]-4-yl)methyl-d)cyclohexanecarboxamido)phenyl)acrylate] | 177 nM | 150 nM | core body temperature (ob/ob mice): more effective at increasing core body temperature than Fex; fasting blood glucose levels (ob/ob mice): significantly reduced; expression of FXR target genes SHP and BSEP in the liver [1]: fail to alter; EC50 (Human FXR full length; [3]): 98 nM
2 | [2H]C(c1ccc(-c2ccc3c(cnn3C)c2)cc1)N(C(=O)C1CCCCC1)c1cc(F)cc(/C=C/C(=O)OC)c1 (stereo not shown) [NSSK00096, methyl (E)-3-(3-fluoro-5-(N-((4-(1-methyl-1H-indazol-5-yl)phenyl)methyl-d)cyclohexanecarboxamido)phenyl)acrylate] | 340 nM | 375 nM | EC50 (Human FXR full length; [3]): 220 nM
3 | COC(=O)/C=C/c1cc(F)cc(N(Cc2ccc(-c3ccc4c(cnn4C)c3)cc2Cl)C(=O)C2CCCCC2)c1 [NSSK00097] | 866 nM | 726 nM | –
4 | COC(=O)/C=C/c1cccc(N(Cc2ccc(-c3ccc4c(cnn4C)c3)cc2Cl)C(=O)c2ccccc2)c1 [NSSK00098] | 655 nM | 670 nM | –
5 | COC(=O)/C=C/c1cc(F)cc(N(Cc2ccc(-c3ccc4c(cnn4C)c3)cc2F)C(=O)c2ccccc2)c1 [NSSK00099] | 2100 nM | 2100 nM | –
6 | COC(=O)/C=C/c1cc(F)cc(N(Cc2ccc(-c3ccc4c(cnn4C)c3)cc2Cl)C(=O)c2ccccc2)c1 [NSSK00100] | 1400 nM | 1800 nM | –
7 | [2H]C(c1ccc(-c2ccc3c(cnn3C)c2)cc1Cl)N(C(=O)c1ccccc1)c1cncc(/C=C/C(=O)OC)c1 (stereo not shown) [NSSK00101] | 5900 nM | 15100 nM | –
8 | COC(=O)/C=C/c1cc(F)cc(N(Cc2ccc(-c3ccc(N(C)C)cc3)cc2)C(=O)[C@@H]2C[C@@H]3CC[C@H]2C3)c1 [NSSK00102] | 252 nM | 328 nM | –
9 | COC(=O)/C=C/c1cc(F)cc(N(Cc2ccc(-c3ccc(N(C)C)cc3)cc2Cl)C(=O)c2ccccc2)c1 [NSSK00103] | 308 nM | 1000 nM | –
10 | [2H]C(c1ccc(-c2ccc(N(C)C)cc2)cc1Cl)N(C(=O)[C@@H]1C[C@@H]2CC[C@H]1C2)c1cc(F)cc(/C=C/C(=O)OC)c1 (stereo partly shown) [NSSK00104] | 227 nM | 547 nM | –
11 | [2H]C(c1ccc(-c2ccc(N(C)C)cc2)cc1)N(C(=O)[C@@H]1C[C@@H]2CC[C@H]1C2)c1cccc(/C=C/C(=O)OC)c1 (stereo partly shown) [NSSK00107] | 450 nM | 861 nM | –
12 | [2H]C(c1ccc(-c2ccc(N(C)C)cc2)cc1F)N(C(=O)c1ccccc1)c1cc(F)cc(/C=C/C(=O)OC)c1 (stereo not shown) [NSSK00108] | – | 497 nM | –
13 | [2H]C(c1ccc(-c2ccc(N(C)C)cc2)cc1F)N(C(=O)C1CCCCC1)c1cc(F)cc(/C=C/C(=O)OC)c1 (stereo not shown) [NSSK00109] | 190 nM | 316 nM | –
14 | [2H]C(c1ccc(-c2ccc(N(C)C)cc2)cc1F)N(C(=O)[C@@H]1C[C@@H]2CC[C@H]1C2)c1cc(F)cc(/C=C/C(=O)OC)c1 (stereo partly drawn) [NSSK00110, methyl (E)-3-(3-((1S,2R,4R)—N-((4′-(dimethylamino)-3-fluoro-[1,1′-biphenyl]-4-yl)methyl-d)bicyclo[2.2.1]heptane-2-carboxamido)-5-fluorophenyl)acrylate] | 60.1 nM | 174 nM | EC50 (Human FXR full length; [3]): 46 nM
15 | [2H]C(c1ccc(-c2ccc3c(cnn3C)c2)cc1)N(C(=O)[C@@H]1C[C@@H]2CC[C@H]1C2)c1cc(F)cc(/C=C/C(=O)OC)c1 (stereo partly shown) [NSSK00113] | 652 nM | 2700 nM | –
16 | [2H]C(c1ccc(-c2ccc(N(C)C)cc2)cc1)N(C(=O)c1ccccc1)c1cc(F)cc(/C=C/C(=O)OC)c1 (stereo not shown) [NSSK00114] | 264 nM | 614 nM | –
17 | COC(=O)/C=C/c1cncc(N(Cc2ccc(-c3ccc(N(C)C)cc3)cc2F)C(=O)[C@@H]2C[C@@H]3CC[C@H]2C3)c1 [NSSK00115] | – | 2000 nM | –
18 | [2H]C(c1ccc(-c2ccc(N(C)C)cc2)cc1F)N(C(=O)c1ccccc1)c1cncc(/C=C/C(=O)OC)c1 (stereo not shown) [NSSK00116] | – | 8600 nM | –
19 | COC(=O)/C=C/c1cc(F)cc(N(Cc2ccc(-c3ccc(N(C)C)cc3)cc2Cl)C(=O)C2CCCCC2)c1 [NSSK00117] | 983 nM | 1300 nM | –
20 | COC(=O)/C=C/c1cncc(N(Cc2ccc(-c3ccc4c(cnn4C)c3)cc2)C(=O)c2ccccc2)c1 [NSSK00118] | 7000 nM | 55000 nM | –
21 | [2H]C(c1ccc(-c2ccc3c(cnn3C)c2)cc1)N(C(=O)c1ccccc1)c1cncc(/C=C/C(=O)OC)c1 (stereo not shown) [NSSK00119] | 798 nM | 65000 nM | –
22 | C/C=C1\C(=O)C[C@H]2[C@@H]3CCC4=CC(=O)CC[C@]4(C)[C@H]3CC[C@]12C [guggulsterone] | – | – | oxygen consumption rate (OCR) (human L cells): lower OCR

Reference: US20190084939A1, “ANALOGS OF FEXARAMINE AND METHODS OF MAKING AND USING” (Salk Institute for Biological Studies, priority 2014, published 2019)
